In brackets after ≈: the same amount, converted by molar mass.
Key:
[1] = system: Mycobacterium tuberculosis; assay: Antitubercular activity against Mycobacterium tuberculosis H37Rv incubated for 6 days by resazurin dye based fluorescence assay; type: functional; conditions: 144 h
[2] = Cytotoxicity against human HepG2 cells incubated for 48 hrs by CellTiter Glo assay; type: cell-based
[3] = Protection Index, ratio of CC50 for human HepG2 cells to MIC for Mycobacterium tuberculosis H37Rv; type: toxicity; conditions: read-out: PI
[4] = Chromatographic lipophilicity, log D of compound in PBS ay pH 7.4 by UV-HPLC analysis; type: physicochemical; conditions: for chromatographic logD: PBS
[5] = Permeability of the compound in pH 7.05 phosphate buffer incubated for 3 hrs by artificial membrane permeability assay based LCMS analysis; type: ADME; conditions: PAMPA, read-out: permeability
[6] = target: Albumin (Homo sapiens, UniProt P02768); assay: Binding affinity to HSA by HPLC analysis; type: ADME; conditions: isolated protein
Albumin, sequence (P02768 whole entry): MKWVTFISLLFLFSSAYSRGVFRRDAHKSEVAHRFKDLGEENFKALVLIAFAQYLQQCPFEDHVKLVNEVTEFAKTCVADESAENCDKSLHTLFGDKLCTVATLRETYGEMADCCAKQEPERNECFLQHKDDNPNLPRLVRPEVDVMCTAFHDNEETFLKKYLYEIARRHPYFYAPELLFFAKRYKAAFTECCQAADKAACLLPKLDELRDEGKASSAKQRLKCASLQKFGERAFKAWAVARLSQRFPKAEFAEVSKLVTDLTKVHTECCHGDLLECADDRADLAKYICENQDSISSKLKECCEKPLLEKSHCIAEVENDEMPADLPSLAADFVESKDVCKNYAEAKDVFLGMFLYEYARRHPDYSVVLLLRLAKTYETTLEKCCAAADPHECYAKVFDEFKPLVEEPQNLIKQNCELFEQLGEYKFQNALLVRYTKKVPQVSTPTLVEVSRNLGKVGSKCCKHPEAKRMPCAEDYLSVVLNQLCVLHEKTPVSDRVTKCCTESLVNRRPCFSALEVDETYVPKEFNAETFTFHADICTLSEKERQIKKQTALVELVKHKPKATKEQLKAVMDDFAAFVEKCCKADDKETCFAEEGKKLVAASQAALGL

[7] = Kinetic solubility of the compound in pH 7.4 phosphate buffered saline; type: physicochemical; conditions: read-out: Kinetic_solubility
[8] = Solubility of the compound in FASSIF at 1 mg incubated for 4 hrs by UPLC-MS analysis; type: physicochemical
[9] = target: Voltage-gated inwardly rectifying potassium channel KCNH2 (Homo sapiens, UniProt Q12809); assay: Inhibition of human ERG
Voltage-gated inwardly rectifying potassium channel KCNH2, sequence (Q12809 whole entry): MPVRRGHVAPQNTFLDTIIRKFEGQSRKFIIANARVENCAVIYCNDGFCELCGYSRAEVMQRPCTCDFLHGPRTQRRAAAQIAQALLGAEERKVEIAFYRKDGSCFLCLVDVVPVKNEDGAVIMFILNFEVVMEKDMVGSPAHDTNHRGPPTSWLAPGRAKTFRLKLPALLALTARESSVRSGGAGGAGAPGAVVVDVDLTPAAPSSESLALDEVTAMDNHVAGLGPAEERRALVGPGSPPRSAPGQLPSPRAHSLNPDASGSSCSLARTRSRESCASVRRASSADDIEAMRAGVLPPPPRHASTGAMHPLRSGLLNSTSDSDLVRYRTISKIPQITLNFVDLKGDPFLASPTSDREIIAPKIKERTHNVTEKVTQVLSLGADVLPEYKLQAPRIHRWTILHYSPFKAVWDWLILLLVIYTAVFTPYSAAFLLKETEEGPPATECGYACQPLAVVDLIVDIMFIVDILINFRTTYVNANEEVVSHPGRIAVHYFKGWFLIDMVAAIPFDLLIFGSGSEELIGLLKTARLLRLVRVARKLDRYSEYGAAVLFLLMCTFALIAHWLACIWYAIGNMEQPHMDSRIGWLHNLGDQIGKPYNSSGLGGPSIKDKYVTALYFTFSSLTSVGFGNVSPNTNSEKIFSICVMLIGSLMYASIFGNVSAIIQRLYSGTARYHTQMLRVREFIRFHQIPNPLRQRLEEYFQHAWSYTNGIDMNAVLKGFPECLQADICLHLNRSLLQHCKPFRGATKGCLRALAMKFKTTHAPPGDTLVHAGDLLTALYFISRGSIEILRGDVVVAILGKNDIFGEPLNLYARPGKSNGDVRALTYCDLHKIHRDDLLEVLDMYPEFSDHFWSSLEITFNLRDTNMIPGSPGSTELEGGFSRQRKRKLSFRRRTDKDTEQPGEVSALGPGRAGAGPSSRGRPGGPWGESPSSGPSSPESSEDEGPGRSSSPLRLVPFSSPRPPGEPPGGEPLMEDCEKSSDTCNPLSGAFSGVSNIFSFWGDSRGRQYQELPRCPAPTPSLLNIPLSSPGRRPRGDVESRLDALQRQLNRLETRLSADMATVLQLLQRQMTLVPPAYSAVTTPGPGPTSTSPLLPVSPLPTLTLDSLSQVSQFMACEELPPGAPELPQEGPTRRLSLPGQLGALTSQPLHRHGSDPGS

[10] = system: Mycobacterium tuberculosis; assay: Antitubercular activity against Mycobacterium tuberculosis H37Rv infected in C57BL/6 mouse assessed as reduction in bacterial load in lungs at 200 mg/kg administered once daily starting from 5 days post infection for 4 consecutive days and measured on day 9; type: functional
[11] = Intrinsic clearance in human liver microsomes at 0.5 uM measured up to 30 mins in presence of NADPH by UPLC/MS/MS analysis; type: ADME, Microsome; conditions: 0.5 h

Row | Structure (SMILES) | MIC [1] | CC50 at 48 h [2] | selectivity ratio [3] | chromatographic logD [4] | Papp at 3 h [5] | Activity [6] | solubility kinetic [7] | solubility at 4 h [8] | IC50 [9] | Activity [10] | CLH [11] | logD ([4]; buffer)
1 | CC(C)c1ccc(-c2cc(CN3CCOCC3)nn2C2CCC2)cc1 | 0.4 µM (≈ 0.136 µg/mL) | 50 µM | 125 | 7.37 | 61 ×10⁻⁶ cm/s | 96.72% | 305 to 306 µM | 139 µg/mL (≈ 409 µM) | 32 µM | 0.3 log10CFU | 2.8 mL/min/g | 
2 | C[Si]1(C)CCN(Cc2cc(-c3ccc(C(F)(F)F)cc3)n(C3CCCCC3)n2)CC1 | 0.07 µM (≈ 0.0305 µg/mL) | 12.6 µM | 180 | 8.49 |  | 96.32% | 69 µM (≈ 30.1 µg/mL) |  | 2.5 µM |  |  | 
3 | COC1CCN(Cc2cc(-c3ccc(C(C)C)cc3)n(-c3ccc(F)cc3)n2)CC1 | 0.3 µM (≈ 0.122 µg/mL) | 31.6 µM | 105 | 7.31 | 44 ×10⁻⁶ cm/s | 96.42% | 152 µM (≈ 61.9 µg/mL) |  | 6.31 µM | 1.5 log10CFU |  | 
4 | CC(C)c1ccc(-c2cc(CN3CCOCC3)nn2C2CCCCC2)cc1 | 0.4 µM (≈ 0.147 µg/mL) | 63.1 µM | 158 | 8.29 | 35 ×10⁻⁶ cm/s | 97.11% | 78.5 µM (≈ 28.9 µg/mL) | 100 µg/mL (≈ 272 µM) | > 50 µM | 0.4 log10CFU | 3.4 mL/min/g | 
5 | Cc1c(CN2CCOCC2)nn(-c2ccc(C(C)C)cc2)c1-c1ccc(F)cc1 | 50 µM (≈ 19.7 µg/mL) | > 100 µM | > 2 |  |  |  |  |  |  |  |  | 
6 | CC(C)c1ccc(-c2cc(CN3CCOCC3)nn2C(C)C)cc1 | 1.75 µM (≈ 0.573 µg/mL) | 79.4 µM | 45 |  |  |  |  |  |  |  |  | 
7 | COC1CCN(Cc2cc(C)n(C3CCCCC3)n2)CC1 | 50 µM (≈ 14.6 µg/mL) | > 100 µM | > 2 |  |  |  |  |  |  |  |  | 
8 | COC1CCN(Cc2cc(-c3ccc(C)nc3)n(C3CCCCC3)n2)CC1 | 50 µM (≈ 18.4 µg/mL) | > 100 µM | > 2 |  |  |  |  |  |  |  |  | 
9 | COC1CCN(Cc2nn(-c3ccc(C(C)C)cc3)c(-c3ccc(F)cc3)c2C)CC1 | 50 µM (≈ 21.1 µg/mL) |  |  |  |  |  |  |  |  |  |  | 
10 | Cc1ccc(-c2cc(CN3CCOCC3)nn2C2CCCCC2)cn1 | 50 µM (≈ 17 µg/mL) | > 100 µM | > 2 |  |  |  |  |  |  |  |  | 
11 | C[Si]1(C)CCN(Cc2cc(-c3ccc(C(F)(F)F)cc3)n(-c3ccc(F)cc3)n2)CC1 | 0.02 µM (≈ 0.00895 µg/mL) | 16 µM |  | 8.13 |  | 96.65% | 53 µM (≈ 23.7 µg/mL) |  |  |  |  | 
12 | CC(C)c1ccc(-c2cc(CN3CCNCC3)nn2C2CCCCC2)cc1 | 20 µM (≈ 7.33 µg/mL) |  |  |  |  |  |  |  |  |  |  | 
13 | CC(C)c1ccc(-c2cc(CN3CCN(c4ccccn4)CC3)nn2C2CCCCC2)cc1 | 0.5 µM (≈ 0.222 µg/mL) | 40 µM | 80 |  | < 0.3 ×10⁻⁶ cm/s | 98.41% | 15 µM (≈ 6.65 µg/mL) |  | > 50 µM |  |  | 9.83
14 | Fc1ccc(-n2nc(CN3CCSCC3)cc2-c2ccc(C(F)(F)F)cc2)cc1 | 4.7 µM (≈ 1.98 µg/mL) | 79.4 µM | 17 |  |  |  |  |  |  |  |  | 
15 | COC1CCN(Cc2cc(-c3ccc(C(C)C)cc3)n(C3CCCOC3)n2)CC1 (stereo not given) | 2.5 µM (≈ 0.994 µg/mL) | 50 µM | 20 |  |  |  |  |  |  |  |  | 
16 | CC(C)c1ccc(-c2cc(CN3CC[Si](C)(C)CC3)nn2-c2ccc(F)cc2)cc1 | 0.00925 µM (≈ 0.0039 µg/mL) | 12.6 µM | 1360 | 8.82 |  | 97.49% | 41 µM (≈ 17.3 µg/mL) |  | 2 µM |  |  | 
17 | CC(C)c1ccc(-c2cc(CN3CCN(C(=O)OC(C)(C)C)CC3)nn2-c2ccc(F)cc2)cc1 | 2 µM (≈ 0.957 µg/mL) | 80 µM | 40 |  |  |  |  |  |  |  |  | 
18 | FC(F)(F)c1ccc(-c2cc(CN3CCN(c4ccccn4)CC3)nn2C2CCCCC2)cc1 | 1 µM (≈ 0.47 µg/mL) | 50 µM | 50 |  |  |  |  |  |  |  |  | 
19 | COC1CCN(Cc2nc(-c3ccc(C(C)C)cc3)n(-c3ccc(F)cc3)c2C)CC1 | 40 µM (≈ 16.9 µg/mL) |  |  |  |  |  |  |  |  |  |  | 
20 | FC(F)(F)c1ccc(-c2cc(CN3CCCCC3)nn2C2CCCCC2)cc1 | 2.5 µM (≈ 0.979 µg/mL) | 50 µM | 20 |  |  |  |  |  |  |  |  | 
21 | CC(C)c1ccc(-c2cc(CN3CCN(C)CC3)nn2-c2ccc(F)cc2)cc1 | 20 µM (≈ 7.85 µg/mL) | 12.6 µM | 0.6 |  |  |  |  |  |  |  |  | 
22 | Fc1ccc(-n2nc(CN3CCN(c4ccccn4)CC3)cc2-c2ccc(C(F)(F)F)cc2)cc1 | 2 µM (≈ 0.963 µg/mL) | 32 µM | 16 |  |  |  |  |  |  |  |  | 
23 | COC1CCN(Cc2cc(-c3ccc(C(C)C)cc3)n(C(C)C)n2)CC1 | 50 µM (≈ 17.8 µg/mL) |  |  |  |  |  |  |  |  |  |  | 
24 | Fc1ccc(-n2nc(CN3CCCCC3)cc2-c2ccc(C(F)(F)F)cc2)cc1 | 2.5 µM (≈ 1.01 µg/mL) | 40 µM | 16 |  |  |  |  |  |  |  |  | 
25 | CC(C)c1ccc(-c2cc(CN3CCN(c4ccccn4)CC3)nn2-c2ccc(F)cc2)cc1 | 0.5 µM (≈ 0.228 µg/mL) | 64 µM | 128 | 8.76 | < 3 ×10⁻⁶ cm/s | 98.45% | 6 µM (≈ 2.73 µg/mL) |  | 25.1 µM |  |  | 
26 | NNC(=O)c1ccncc1 [ISONIAZID] | 1.8 µM (≈ 0.247 µg/mL) |  |  |  |  |  |  |  |  |  |  | 

From ChEMBL document CHEMBL4304832, “Novel Pyrazole-Containing Compounds Active against Mycobacterium tuberculosis” (ACS Med Chem Lett, 2019)
